# Values of other authors in PubChem BioAssay AID1259409 (Chemical Carcinogenesis Research Information System (CCRIS), 2018).
# Where a SMILES comes first, the peptide text is derived from it. The star is where a group is joined. Leuψ(CH2N)ThzNH2 = CC(C)C[C@@H](CN1CSC[C@H]1C(N)=O)N*; Hydrocinnamoyl = O=C(CCc1ccccc1)*
# Tested on: rodent chemically induced tumor inhibition, incidence and multiplicity
# Assay: CCRIS tumor inhibitor studies
# Conditions: Promoter: NONE USED
smiles,measurement,setting,value
CC(C)C[C@@H](CN1CSC[C@H]1C(N)=O)NC(=O)[C@H](Cc1cnc[nH]1)NC(=O)CNC(=O)[C@@H](NC(=O)[C@H](C)NC(=O)[C@H](Cc1c[nH]c2ccccc12)NC(=O)[C@H](CCC(N)=O)NC(=O)CCc1ccccc1)C(C)C (Hydrocinnamoyl-QWAVGH-{Leuψ(CH2N)ThzNH2}),"tumour outcome (control, treated, inhibition, significance)","Carcinogen: N-NITROSOBIS(2-OXOPROPYL)AMINE, 60599-38-4, Dose [Inhibitor]: 0, 20 UG/D FROM OSMOTIC PUMP FOR 2 MO, Route [Inhibitor]: SUBCUTANEOUS IMPLANT, Species: HAMSTER, Strain/Sex: SYRIAN/FEMALE, Target Tissue: Type of Lesion: PANCREAS: ADENOCARCINOMA","10/11 (91%), 7/11 (64%), 30%, not calculated"
same,"tumour outcome (control, treated, inhibition, significance)","Carcinogen: N-NITROSOBIS(2-OXOPROPYL)AMINE, 60599-38-4, Dose [Inhibitor]: 0, 30 UG/D FOR 2 MO, Route [Inhibitor]: SUBCUTANEOUS, Species: HAMSTER, Strain/Sex: SYRIAN/FEMALE, Target Tissue: Type of Lesion: PANCREAS: ADENOCARCINOMA","11/13 (85%), 12/13 (92%), -8%, not calculated"
CCCCC[Se]C#N,"tumour outcome (control, treated, inhibition, significance)","Carcinogen: 7,12-DIMETHYLBENZ[A]ANTHRACENE, 57-97-6, Dose [Inhibitor]: 0.1, 2 PPM (SELENIUM) IN DIET FOR 3 WK BEGINNING 2 WK PRIOR TO CARCINOGEN DOSE (STUDY DURATION: 25 WK), Route [Inhibitor]: ORAL, Species: RAT, Strain/Sex: SPRAGUE-DAWLEY/FEMALE, Target Tissue: Type of Lesion: MAMMARY GLAND: TUMOR, Dose [Carcinogen]: 10 MG ONCE","25/30 (83%), 11/30 (37%), 55%, p<0.05"
ClC(Cl)(Cl)Cl,"tumour outcome (control, treated, inhibition, significance)","Carcinogen: 1,2-DIMETHYLHYDRAZINE, 540-73-8, Dose [Inhibitor]: 0, 1.5 ML/KG BW IN CORN OIL ADMINISTERED 2 HR PRIOR TO EACH CARCINOGEN DOSE (STUDY DURATION: 8 MO), Route [Inhibitor]: GAVAGE, Species: RAT, Strain/Sex: BD6/MALE, Target Tissue: Type of Lesion: INTESTINE: TUMOR, Dose [Carcinogen]: 20 MG/KG BW 1/WK FOR 20 WK","100%, 0%, 100%, not calculated"
CC(C)(C)c1cc(C(C)(C)C)c(O)cc1O,"tumour outcome (control, treated, inhibition, significance)","Carcinogen: BENZO[A]PYRENE, 50-32-8, Dose [Inhibitor]: 0.03 MMOL/G OF DIET DAILY STARTING 7 D BEFORE AND CONTINUING THROUGH 3 D AFTER CARCINOGEN TREATMENT FOLLOWED BY OBSERVAT, Route [Inhibitor]: ORAL, Species: MOUSE, Strain/Sex: ICR/FEMALE, Target Tissue: Type of Lesion: FORESTOMACH: NEOPLASM, Dose [Carcinogen]: 1 MG IN 0.2 ML CORN OIL 2/WK FOR 4 WK","94%, 100%, -6%, not significant"
Nc1nc(-c2ccccc2)c(Br)c(=O)[nH]1,"tumour outcome (control, treated, inhibition, significance)","Carcinogen: N-[4-(5-NITRO-2-FURYL)-2-THIAZOLYL]FORMAMIDE, 24554-26-5, Dose [Inhibitor]: 200 MG/KG IN CARBOXYMETHYL-CELLULOSE, POLYSORBATE 80, NACL AND BENZYL ALCOHOL, 2/WK BEGINNING ON DAY 30 OF CARCINOGEN TR, Route [Inhibitor]: INTRAGASTRIC, Species: MOUSE, Strain/Sex: C3H/FEMALE, Target Tissue: Type of Lesion: BLADDER: TRANSITIONAL CELL CARCINOMA, Dose [Carcinogen]: 0.13% IN DIET FOR 192 D","24/39 (62%), 6/43 (14%), 77%, p=0.0001"
same,"tumour outcome (control, treated, inhibition, significance)","Carcinogen: N-[4-(5-NITRO-2-FURYL)-2-THIAZOLYL]FORMAMIDE, 24554-26-5, Dose [Inhibitor]: 200 MG/KG IN CARBOXYMETHYL-CELLULOSE, POLYSORBATE 80, NACL AND BENZYL ALCOHOL, 2/WK BEGINNING ON DAY 30 OF CARCINOGEN TR, Route [Inhibitor]: INTRAPERITONEAL, Species: MOUSE, Strain/Sex: C3H/FEMALE, Target Tissue: Type of Lesion: BLADDER: TRANSITIONAL CELL CARCINOMA, Dose [Carcinogen]: 0.13% IN DIET FOR 192 D","18/22 (82%), 5/9 (56%), 32%, p<0.2"
same,"tumour outcome (control, treated, inhibition, significance)","Carcinogen: N-[4-(5-NITRO-2-FURYL)-2-THIAZOLYL]FORMAMIDE, 24554-26-5, Dose [Inhibitor]: 200 MG/KG IN CARBOXYMETHYL-CELLULOSE, POLYSORBATE 80, NACL AND BENZYL ALCOHOL, 2/WK BEGINNING ON DAY 150 OF CARCINOGEN T, Route [Inhibitor]: INTRAPERITONEAL, Species: MOUSE, Strain/Sex: C3H/FEMALE, Target Tissue: Type of Lesion: BLADDER: TRANSITIONAL CELL CARCINOMA, Dose [Carcinogen]: 0.13% IN DIET FOR 192 D","18/22 (82%), 17/19 (89%), -8%, p=0.489"
